# According to patent publication US20060160095A1, “Survivin” (EiRx Therapeutics Limited, priority 2002, published 2006):
# Assays:
# Neutrophils = assay: Neutrophil survival with BAL or GM-CSF after antisense/missense oligonucleotides (Example 7); type: cell-based, human; settings: oligonucleotides 0 to 10 μM
# Method: Neutrophils are purified as normal and resuspended in culture medium (RPMI+10% FCS) to give a final conc. of 2×10^6/ml. Five hundred microlitres are added to each well of a 24 well plate, to give a final concentration of 1×10^6/well.
# Either antisense or missense oligonucleotides are added directly to each well over a range of concentrations between 0 μM to 10 μM.
# Cells are then incubated for time intervals between 15 mins to 8 hours. Bronchoalveolar lavage (BAL) fluid, obtained from patients with chronic inflammation, including cystic fibrosis, chronic obstructive pulmonary disease or healthy controls, is then added to each well. As a positive control for increased survival, neutrophils are treated with GM-CSF (0 to 20 units).
# Neutrophil apoptosis is measured as described in Example 1.
# [1] = system: Primary human neutrophils; assay: MTT survival assay of neutrophils cultured with GM-CSF, with or without gliotoxin; type: cell-based
# Method: Primary human neutrophils are isolated and purified from peripheral blood of normal healthy individuals. Neutrophils are resuspended in serum containing culture medium together with various amounts of GM-CSF at a density of 2×10^6/ml, with 100 μl plated into a 96 well plate and cultured for 18 h at 37° C. After this time 10 μl of MTT (5 mg/ml) is added to the cultures and incubated for a further 4 h at 37° C. before solubilisation of the purple coloured formazan with acidic isopropanol. Optical densities are read at 570 nm using a plate reader.
# Primary human neutrophils are isolated and purified from peripheral blood of normal healthy individuals. Neutrophils are resuspended in serum containing culture medium containing 5 U/ml of GM-CSF at a concentration of 2×10^6/ml. […] After the indicated time, 10 μl of MTT (5 mg/ml) are added to the cultures and incubated for a further 4 h at 37° C. before solubilisation of the purple coloured formazan with acidic isopropanol. Optical densities are read at 570 nm using a plate reader.
# Survivin mRNA = assay: LifeGrid microarray of Survivin transcripts in neutrophils; type: cell-based, human; settings: gliotoxin added in the presence of GM-CSF
# Method: Primary human neutrophils are isolated and purified from peripheral blood of normal healthy individuals using standard techniques. Neutrophils are resuspended in serum containing culture medium together with GM-CSF (50 U) at a concentration of 2×10^6/ml, and cultured for 0 h (control), 2 h, 4 h and 6 h at 37° C. Total RNA is then prepared from both groups using acid phenol/guanidine isothiocyanate extraction (RNAzol B; Biogenesis), or RNeasy RNA preparation kits (Qiagen). Any contaminating genomic DNA is removed by DNase treatment (DNase I, Gibco-BRL). […]
# This example describes the use of a STORM Phosphoimager to quantitatively image positive signals across the filter arrays. […]
# The captured image file is then analysed using software such as Array Vision (Imaging Research Inc.; See FIG. 5). […] This program contains facilities for spot detection and quantification, and background detection and quantification. […] As the data is imported to the database, a Normalisation factor is calculated and the sDENs values modified accordingly. […] A normalization factor may be derived from Linear Regression calculated by reference to housekeeping genes. Alternatively, the Global Mean is calculated as the average of the sDens values across all of the arrays to be compared and a normalisation factor is then derived by division of the overall spot density with the Global Mean value. […]
# HL60 cells = assay: DNA fragmentation by agarose gel electrophoresis in differentiated HL60 cells; type: cell-based; settings: 10 μM Retinoic acid
# Method: HL60 cells are seeded at 5×10^6cells in T25 flasks and incubated with 10 μM Retinoic acid for 24, 48, 72, 96, 120 and 144 hrs. Mock treated HL-60 cells were used as a control. Cellular DNA was analysed for fragmentation into oligonucleosomal-size fragments and their multiples by agarose gel electrophoresis. Lanes 1,3,5,7,9,11 contain DNA from HL-60 cells that were differentiated with 10 μM Retinoic Acid over the indicated period whereas samples in lanes 2,4,6,8,10,12,14 are from control HL-60 cells treated for the same time period. Lane 15 is a 1 Kb Plus Ladder Molecular Marker.
compound,measurement,setting,value
"5′-CCCAgCCTTCCAgCTCCTTg-3′ (antisense 5'-CCCAgCCTTCCAgCTCCTTg-3'; as printed in the source, key not given here) [antisense Survivin oligonucleotides]",survival of neutrophils treated with BAL,Neutrophils; BAL derived from patients with chronic inflammation,inhibits the survival
same,survival of neutrophils treated with control cytokine GM-CSF,Neutrophils; GM-CSF as control cytokine,inhibits the survival
"CN1C(=O)[C@]23CC4=CC=C[C@H](O)[C@H]4N2C(=O)[C@@]1(CO)SS3 [gliotoxin, Gliotoxin]",block of the GM-CSF inhibition of neutrophil apoptosis (MTT),[1]; 0.1 μg/ml added with 5 U/ml GM-CSF,effectively blocks
same,neutrophil apoptosis with the compound alone (MTT),"[1]; added alone to isolated neutrophils, no GM-CSF",No increased neutrophil apoptosis
same,Increased expression of Survivin following GM-CSF treatment,Survivin mRNA,blocked
"CC1=C(/C=C/C(C)=C/C=C/C(C)=C/C(=O)O)C(C)(C)CCC1 [retinoic acid, Retinoic acid]",onset of apoptosis after differentiation,HL60 cells,~4 days
